Measurements: US12152035B2, “Androgen receptor binding molecule and use thereof” (Industrial Technology Research Institute, priority 2020, dated 2024)

Experiments:
Assay type in all cases: cell-based
VCaP cells = assay: Cytotoxicity assay (AlamarBlue, 72 hours); settings: 72 hours treatment, concentration not given
Method: (§1) Compound stock solutions of 10 mM were prepared with 100% DMSO and shaken for 10-15 seconds. The compound stock solutions were centrifuged at 12000 rpm (13523 rcf.) for 5 minutes and record the turbidity or precipitation state with a photo snapshot. The compound stock solutions were resuspended by shaking for 10-15 seconds, and serially diluted with 100% DMSO solution to make the compound concentration to 1000 μM, then to 100, 10, and 1 μM, and then 10-fold diluted with medium to 100, 10, 1, 0.1 μM (final 10% DMSO/medium) to complete compound test sample preparation. Compound treatment was performed by adding 10 μL of compound test sample to cells in each well of a 96-well plate (final 1% DMSO/medium).
(§2) Cells (CWR22Rv1 cells or VCaP cells) were cultured in RPMI-1640 medium supplemented with 10% fetal bovine serum, 10,000 U/mL penicillin and 10,000 μg/mL streptomycin. Cells were cultured at 37° C. in a humidified 5% CO2 incubator.
(§3) Cells were seeded in a 96-well plate (1×10^4 cells/well). 10 μL of the above compound test sample was added to each well of the 96-well plate on next day. After 72 hours of compound treatment, 10 μL of AlamaBlue reagent was added to each of 96 wells and incubated for 4 hours. The fluorescence value at Ex/Em=560/590 nm was read with a microplate reader, and the cytotoxicity (%) was calculated.
(§4) According to the above method, the compounds prepared above were subjected to cytotoxicity test with CWR22RV1 cells and VCaP cells.

CWR22RV1 cells = assay: Cytotoxicity assay (AlamarBlue, 72 hours); settings: 72 hours treatment, concentration not given
Method: as §1, §2, §3, §4

[1] = system: full-length androgen receptor; assay: Western blot: degradation of full-length androgen receptor in CWR22RV1 cells; settings: overnight
Method: CWR22Rv1 cells were maintained in RPMI medium supplemented with 10% fetal bovine serum and 1% penicillin-streptomycin at 37° C. in a humidified environment with 5% CO2.
CWR22Rv1 (5×10^5 cells) were seeded in each well of a 6-well plate and incubated overnight. Before compound treatment, the medium in the wells was replaced with a new medium. Cells were treated with different concentrations of compound overnight. Subsequently, cells were harvested by adding cold PBS and scraping cells. Cells were lysed according to general procedures and Western blot assays were performed to assess the ability of compounds to degrade full-length androgen receptor or androgen receptor splice variant 7. The cells or cell lysates were kept on ice at all times.
The following reagents were used in this experiment. Phosphate buffered saline (PBS) (Hyclone, SH30028.02), fetal bovine serum (Hyclone, SH30084.23, Lot AC14563276), penicillin-streptomycin solution (Hyclone, SV30010), 0.5% Trypsin-EDTA (Gibco, 15400-054), CST Lysis Buffer (CST-9803), Halt™ Protease and Phosphatase Inhibitor (ThermoFisher, 78442), Coomassie (Bradford) Protein Assay (Coomassie (Bradford) protein assay) (ThermoFisher, 23200), androgen receptor antibody (Cell Siginaling, CST-5153S), GAPDH antibody (Cell Siginaling, CST-5174S), HRP-goat-anti-rabbit (Jackson Immuno Research, 111-035-003), skim milk, SuperSignal West Pico Maximum Sensitivity substrate (ThermoFisher, 34080).
The compound prepared above was analyzed for its ability to degrade full-length androgen receptor and androgen receptor splice variant 7 in CWR22RV1 cells by Western blotting according to the method shown in item B.3-2 above.

[2] = compound concentration 0.1 (unit not given)
[3] = compound concentration 1 (unit not given)
[4] = compound concentration 10 (unit not given)

SMILES	Cytotoxicity, VCaP cells (cell viability %) (VCaP cells)	Cytotoxicity, CWR22RV1 cells (cell viability %) (CWR22RV1 cells)	Degradation ability for full-length androgen receptor (residual rate %) [1, 2]	Degradation ability for full-length androgen receptor (residual rate %) [1, 3]	Degradation ability for full-length androgen receptor (residual rate %) [1, 4]
Cc1ncsc1-c1ccc(CNC(=O)[C@@H]2C[C@H](O)CN2C(=O)[C@@H](NC(=O)COCCCCOc2ccc(C(=O)NC3C(C)(C)C(Oc4ccc5nnc(C(F)(F)F)n5n4)C3(C)C)cc2)C(C)(C)C)cc1 (stereo partly drawn) [Compound 53, 1-(3,3-dimethyl-2-(2-(4-(4-(((1r,3r)-2,2,4,4-tetramethyl-3-((3-(trifluoromethyl)-[1,2,4]triazolo[4,3-b]pyridazin-6-yl)oxy)cyclobutyl)carbamoyl)phenoxy)butoxy)acetamido)butanoyl)-4-hydroxy-N-(4-(4-methylthiazol-5-yl)benzyl)pyrrolidine-2-carboxamide]	+++ (<40% : +++)	+++ (<40% : +++)	− (>80%; −)	+++ (<40%: +++)	+++ (<40%: +++)
O=C1CCC(N2Cc3c(NC(=O)COCCCCOc4ccc(C5CCN(c6ccc7nnc(C(F)(F)F)n7n6)CC5)cc4)cccc3C2=O)C(=O)N1 (stereo not drawn) [Compound 38, N-(2-(2,6-dioxopiperidin-3-yl)-1-oxoisoindolin-4-yl)-2-(4-(4-(1-(3-(trifluoromethyl)-[1,2,4]triazolo[4,3-b]pyridazin-6-yl)piperidin-4-yl)phenoxy)butoxy)acetamide]	+++ (<40% : +++)	+++ (<40% : +++)	++ (40-60%: ++)	+++ (<40%: +++)	+++ (<40%: +++)
CC1(C)C(NC(=O)c2ccc(C#CC3CCN(C(=O)CNc4cccc5c4C(=O)N(C4CCC(=O)NC4=O)C5=O)CC3)cc2)C(C)(C)C1Oc1ccc2nnc(C(F)(F)F)n2n1 (stereo not drawn) [Compound 49, 4-((1-((2-(2,6-dioxopiperidin-3-yl)-1,3-dioxoisoindolin-4-yl)glycyl)piperidin-4-yl)ethynyl)-N-((1r,3r)-2,2,4,4-tetramethyl-3-((3-(trifluoromethyl)-[1,2,4]triazolo[4,3-b]pyridazin-6-yl)oxy)cyclobutyl)benzamide]	+++ (<40% : +++)	++ (40-60% : ++)	++ (40-60%: ++)	++ (40-60%: ++)	− (>80%; −)
Cc1cc([C@H](C(=O)N2C[C@H](O)C[C@H]2C(=O)N[C@@H](CC(=O)N2CCC(C#Cc3ccc(C4CCN(C5=Nn6c(nnc6C(F)(F)F)CC5)CC4)cc3)CC2)c2ccc(-c3scnc3C)cc2)C(C)C)on1 [Compound 14, (2S,4R)-4-hydroxy-1-((R)-3-methyl-2-(3-methylisoxazol-5-yl)butanoyl)-N—((S)-1-(4-(4-methylthiazol-5-yl)phenyl)-3-oxo-3-(4-((4-(1-(3-(trifluoromethyl)-7,8-dihydro-[1,2,4]triazolo[4,3-b]pyridazin-6-yl)piperidin-4-yl)phenyl)ethynyl)piperidin-1-yl)propyl)pyrrolidine-2-carboxamide]	+++ (<40% : +++)	+++ (<40% : +++)	− (>80%; −)	− (>80%; −)	+++ (<40%: +++)
O=C1CCC(N2Cc3c(NC(=O)COCCCCOc4ccc(C5CCN(C6=Nn7c(nnc7C(F)(F)F)CC6)CC5)cc4)cccc3C2=O)C(=O)N1 (stereo not drawn) [Compound 30, N-(2-(2,6-dioxopiperidin-3-yl)-1-oxoisoindolin-4-yl)-2-(4-(4-(1-(3-(trifluoromethyl)-7,8-dihydro-[1,2,4]triazolo[4,3-b]pyridazin-6-yl)piperidin-4-yl)phenoxy)butoxy)acetamide]	+++ (<40% : +++)	+++ (<40% : +++)	++ (40-60%: ++)	+++ (<40%: +++)	+++ (<40%: +++)
Cc1ncsc1-c1ccc(CNC(=O)[C@@H]2C[C@H](O)CN2C(=O)[C@@H](NC(=O)COCCCCCOc2ccc(C3CCN(C4=Nn5c(nnc5C(F)(F)F)CC4)CC3)cc2)C(C)(C)C)cc1 [Compound 21]	+ (60-80% : +)	+++ (<40% : +++)	− (>80%; −)	− (>80%; −)	+++ (<40%: +++)
CC1(C)C(NC(=O)c2ccc(C#CC3CCN(C4CCN(C(=O)CNc5cccc6c5C(=O)N(C5CCC(=O)NC5=O)C6=O)CC4)CC3)cc2)C(C)(C)C1OC1=Nn2c(nnc2C(F)(F)F)CC1 (stereo not drawn) [Compound 52, 4-((1′-((2-(2,6-dioxopiperidin-3-yl)-1,3-dioxoisoindolin-4-yl)glycyl)-[1,4′-bipiperidin]-4-yl)ethynyl)-N-((1r,3r)-2,2,4,4-tetramethyl-3-((3-(trifluoromethyl)-7,8-dihydro-[1,2,4]triazolo[4,3-b]pyridazin-6-yl)oxy)cyclobutyl)benzamide]	+++ (<40% : +++)	+++ (<40% : +++)	− (>80%; −)	++ (40-60%: ++)	++ (40-60%: ++)
O=C1CCC(N2Cc3cc(C#CCOCCCCOc4ccc(C5CCN(C6=Nn7c(nnc7C(F)(F)F)CC6)CC5)cc4)ccc3C2=O)C(=O)N1 (stereo not drawn) [Compound 42]	+ (60-80% : +)	+ (60-80% : +)	− (>80%; −)	− (>80%; −)	+ (60-80%: +)
O=C1CCC(N2C(=O)c3cccc(N4CCN(C(=O)COCCCCOc5ccc(C6CCN(C7=Nn8c(nnc8C(F)(F)F)CC7)CC6)cc5)CC4)c3C2=O)C(=O)N1 (stereo not drawn) [Compound 45, 2-(2,6-dioxopiperidin-3-yl)-4-(4-(2-(4-(4-(1-(3-(trifluoromethyl)-7,8-dihydro-[1,2,4]triazolo[4,3-b]pyridazin-6-yl)piperidin-4-yl)phenoxy)butoxy)acetyl)piperazin-1-yl)isoindoline-1,3-dione]	+++ (<40% : +++)	+ (60-80% : +)	− (>80%; −)	++ (40-60%: ++)	++ (40-60%: ++)
